The values below are quoted from earlier work in US7459223B2, “Electrochemical methods for generation of a biological proton motive force” (Board of Trustees of Michigan State University, priority 1998, dated 2008).

The conditions of the series: cited from earlier work.

Like-named read-outs stand apart in the source and are kept apart here.

Turning to `NC(=O)c1ccc[n+]([C@@H]2O[C@H](COP(=O)(O)OP(=O)(O)OC[C@H]3O[C@@H](n4cnc5c(N)ncnc54)[C@H](O)[C@@H]3O)[C@@H](O)[C@H]2O)c1` [NAD^+], the “E0′ (redox potential)” value (Table 1, redox mediators) is given as −0.32 V.

Menaquinone: the “E0′ (redox potential)” value is given as −0.073 volt. Moreover, the “E0′ (redox potential)” value (Table 1, redox mediators) is recorded as −0.074 V.
